What all share (assay type): physicochemical
Data set [1] in a line: Acid-base equilibrium of olopatadine (pKa values, iso-electric point). The text has this: Olopatadine has both a carboxylic functional group (pKa1=4.18) and a tertiary amino group (pKa2=9.79). It exists in different ionic forms depending upon the pH of the solution. Olopatadine exists predominantly as a zwitterion in the pH range between the two pKa values with a negatively-charged carboxylic group and a positively-charged tertiary amino group. The iso-electric point of the olopatadine zwitterion is at pH 6.99. At a pH lower than pKa1, cationic olopatadine (with ionized tertiary amino group) is dominant. At a pH higher than pKa2, anionic olopatadine (with ionized carboxylic group) is dominant.

A short description of data set [2]: Effect of NaCl and Na2HPO4 on dissolution of olopatadine hydrochloride in water. As for the experimental part:
The effect of NaCl on the dissolution rate of olopatadine hydrochloride in water was determined.

The nature of data set [3]: Effect of NaCl, Na2HPO4 and mannitol on dissolution rate of olopatadine hydrochloride in a nasal vehicle. The conditions noted are these: nasal formulation containing 0.01% EDTA and 0.01% BAC. As for the experimental part:
The effect of NaCl, Na2HPO4, and mannitol on the dissolution rate of olopatadine hydrochloride in a nasal formulation containing 0.01% EDTA and 0.01% BAC was determined.

The nature of data set [4]: Effect of NaCl and Na2HPO4 concentrations on dissolution of olopatadine hydrochloride in a nasal formulation. As for the experimental part:
The effect of NaCl and Na2HPO4 concentrations on the dissolution rate of olopatadine hydrochloride in a nasal formulation containing 0.01% EDTA and 0.01% BAC was determined. The aqueous solubility of olopatadine HCl decreases with increasing concentration of NaCl.

A short description of data set [5]: Example 5: visual observations of clarity during compounding, with and without phosphate buffer. The conditions noted are these: without phosphate buffer, 0.7% NaCl, pH as low as 3.6, compounding procedure of Example 1. As for the experimental part: An exemplary compounding procedure for the nasal composition shown in Table 1 is described as below. • 1. Tare a suitable compounding vessel with magnetic stir bar. Add approximately 80% of the batch weight of purified water. • 2. While stirring, add dibasic sodium phosphate (anhydrous), sodium chloride, edetate disodium, benzalkonium chloride and olopatadine HCl. • 3. Add equivalent to approximately 0.55 g, 6N hydrochloric acid per 100 ml batch. • 4. Allow adequate time between each addition for dissolution of each ingredient • 5. Add purified water to approximately 90% of final batch weight. • 6. Measure pH and adjust, if necessary, to 3.7 with 6N (and/or 1N) hydrochloric acid and 1N sodium hydroxide. • 7. Adjust to final batch weight with purified water (QS). • 8. Measure final pH. • 9. Filter through 0.2 μm filtration membrane.
The two compositions shown in Table 2 below were prepared using the procedure described in Example 1 and visual observations of the compositions clarity were made at different points during the compounding procedure.

Data set [6] is described as follows: Example 6: visual observations, phosphate buffer added to cloudy 0.6% olopatadine composition. The conditions noted are these: tested nasal vehicle without a phosphate salt.

We go through two molecules from patent US8399508B2, “Olopatadine formulations for topical nasal administration” (Alcon Pharmaceuticals Ltd., priority 2001, dated 2013).

Structures can show the parent of a compound that is named as a salt.

Take `CN(C)CC/C=C1/c2ccccc2COc2ccc(CC(=O)O)cc21` [Olopatadine, Z-11-(3-dimethylaminopropylidene)-6,11-dihydrodibenz[b,e]oxepine-2-acetic acid]: in data set [1], the “iso-electric point of the olopatadine zwitterion” value is 6.99 pH, the “pKa1 (carboxylic functional group)” value worked out at 4.18 and the “pKa2 (tertiary amino group)” value turned out to be 9.79. The “effect of NaCl on rate of dissolution” value in data set [2] (in water) is given as “significant reduction”. For the same molecule, the “effect of addition of Na2HPO4 on dissolution” value in data set [2] (in water with NaCl) is on record as “dramatically improved”. Further, in data set [2] (with Na2HPO4), the “time for complete dissolution of 0.6% olopatadine solution” value was “less than one minute”. Further, the “time for complete dissolution of 0.6% olopatadine solution” value in data set [2] (without Na2HPO4, assuming the entire amount would eventually dissolve) is given as “at least several hours”.
As to `CN(C)CC/C=C1/c2ccccc2COc2ccc(CC(=O)O)cc21` [olopatadine hydrochloride, hydrochloride salt of (Z)-11-(3-dimethylaminopropylidene)-6,11-dihydro-dibenz-[b,e]oxepin-2-acetic acid], the “effect of phosphate salt on dissolution rate” value in data set [3] is on record as “the same as that shown in water in Example 2”. The aqueous solubility result in data set [4] (with increasing concentration of NaCl, nasal formulation with 0.01% EDTA and 0.01% BAC) is listed as “decreases”; in data set [4] (with increasing phosphate buffer in the presence of NaCl), “increased aqueous solubility”. In addition, the “dissolution of 0.665% olopatadine hydrochloride in water” value in data set [5] is “did not completely dissolve”. Further, the “solubility of 0.665% olopatadine hydrochloride” value in data set [6] is “not soluble”.
